Measured values reported in article PMC5421785, “Citrullination only infrequently impacts peptide binding to HLA class II MHC” (PLoS ONE, 2017).
Where two headings read alike, the source gives them in different places. Each block holds one compound with its values, some of them ahead of it. Square brackets hold non-standard residues; d marks the D form. Ends that are not written are not given here. Peptide text beside a SMILES is read from it. Cit = NC(=O)NCCC[C@H](N)C(=O)O

Columns and labels:
[1] = target: T1, HLA-DRB1*01:01 (Homo sapiens, UniProt P01903+P01911, A100R/D57E/F55L/F60I/F76Y/I96L/L162R/M171V/P40L/Q125E/R42F/V115G/Y59C); assay: HLA class II peptide binding, inhibition of radiolabeled peptide binding to purified MHC
T1 construct: EBV transformed homozygous cell lines were used as sources of MHC molecules; endogenous in cells; host or cells: EBV transformed homozygous cell lines

[2] = target: T2, HLA-DRB1*04:01 (Homo sapiens, UniProt P01903+P01911, A100K/A169T/F76Y/I96L/K127E/L162R/M171V/N62H/P40V/Q125Y/R42H/S133A/S149N/S66Y/V115G/V209L/W38E); assay: as above
T2 construct: EBV transformed homozygous cell lines were used as sources of MHC molecules; endogenous in cells; host or cells: EBV transformed homozygous cell lines

[3] = citrullinated 15-mer peptide (X = citrulline), purified HLA-DRB1*01:01, read-out: DRB1*01:01 binding capacity, Cit peptide (IC50 nM)
[4] = citrullinated 15-mer peptide (X = citrulline), purified HLA-DRB1*04:01, read-out: DRB1*04:01 binding capacity, Cit peptide (IC50 nM)
[5] = citrullinated 15-mer (X), purified MHC, inhibition of radiolabeled peptide binding, dash = IC50 >40,000 nM, read-out: DRB1*01:01 binding capacity, Cit peptide (IC50 nM)
[6] = citrullinated 15-mer (X), purified MHC, inhibition of radiolabeled peptide binding, dash = IC50 >40,000 nM, read-out: DRB1*04:01 binding capacity, Cit peptide (IC50 nM)
[7] = wild-type (unmodified Arg) 15-mer peptide, purified HLA-DRB1*01:01, read-out: DRB1*01:01 binding capacity, WT peptide (IC50 nM)
[8] = wild-type (unmodified Arg) 15-mer peptide, purified HLA-DRB1*04:01, read-out: DRB1*04:01 binding capacity, WT peptide (IC50 nM)

IC50 [1, 3]: 7860 nM
IC50 [2, 4]: 14300 nM
Compound: CC[C@H](C)[C@H](NC(=O)[C@@H](NC(=O)[C@H](CCC(N)=O)NC(=O)CNC(=O)[C@H](CC(=O)O)NC(=O)[C@H](CCCNC(N)=O)NC(=O)[C@@H](NC(=O)[C@H](CCC(=O)O)NC(=O)[C@@H](NC(=O)[C@@H](N)[C@@H](C)O)C(C)C)[C@@H](C)O)C(C)C)C(=O)N[C@@H](CC(N)=O)C(=O)N[C@@H](CCC(=O)O)C(=O)N[C@H](C(=O)N[C@@H](CO)C(=O)N[C@@H](CCC(N)=O)C(=O)O)[C@@H](C)O [TVETXDGQVINETSQ] (H-TVET[Cit]DGQVINETSQ-OH)

IC50 [1, 3]: 29 nM
IC50 [2, 4]: > 40000 nM
Compound: CC(C)C[C@H](NC(=O)[C@H](CC(C)C)NC(=O)[C@@H](NC(=O)[C@H](CC(C)C)NC(=O)[C@H](CC(C)C)NC(=O)[C@@H](N)C(C)C)[C@@H](C)O)C(=O)N[C@H](C(=O)N[C@@H](C)C(=O)N[C@@H](C)C(=O)N[C@H](C(=O)N[C@@H](CC(C)C)C(=O)N[C@@H](CCCNC(N)=O)C(=O)N[C@@H](CS)C(=O)N[C@@H](CCC(N)=O)C(=O)NCC(=O)O)C(C)C)C(C)C [VLLTLLVAAVLXCQG] (H-VLLTLLVAAVL[Cit]CQG-OH)

IC50 ([1]; read-out: DRB1*01:01 binding capacity, WT peptide (IC50 nM)): 408 nM
IC50 ([2]; read-out: DRB1*04:01 binding capacity, WT peptide (IC50 nM)): 491 nM
Compound: MSTRSVSSSSYRRMF [Vimentin 1 WT]

IC50 [1, 5]: 672 nM
IC50 [2, 6]: 443 nM
Compound: CSCC[C@H](NC(=O)[C@H](CCCNC(N)=O)NC(=O)[C@H](CCCNC(=N)N)NC(=O)[C@H](Cc1ccc(O)cc1)NC(=O)[C@H](CO)NC(=O)[C@H](CO)NC(=O)[C@H](CO)NC(=O)[C@H](CO)NC(=O)[C@@H](NC(=O)[C@H](CO)NC(=O)[C@H](CCCNC(=N)N)NC(=O)[C@@H](NC(=O)[C@H](CO)NC(=O)[C@@H](N)CCSC)[C@@H](C)O)C(C)C)C(=O)N[C@@H](Cc1ccccc1)C(=O)O [MSTRSVSSSSYRXMF] (H-MSTRSVSSSSYR[Cit]MF-OH)

IC50 [1, 7]: 85 nM
IC50 [2, 8]: > 40000 nM
Compound: AGEPGERGLKGHRGF [Collagen 1121 WT]

IC50 [1, 5]: 31 nM
IC50 [2, 6]: 338 nM
Compound: CC(C)C[C@H](NC(=O)[C@H](CCCNC(=N)N)NC(=O)[C@@H](NC(=O)[C@H](C)NC(=O)[C@H](CO)NC(=O)[C@H](CO)NC(=O)[C@H](CCCNC(=N)N)NC(=O)[C@@H](NC(=O)[C@H](C)NC(=O)[C@@H](N)Cc1ccc(O)cc1)[C@@H](C)O)C(C)C)C(=O)N[C@@H](CCCNC(N)=O)C(=O)N[C@@H](CO)C(=O)N[C@@H](CO)C(=O)N[C@H](C(=O)N1CCC[C@H]1C(=O)O)C(C)C [YATRSSAVRLXSSVP] (H-YATRSSAVRL[Cit]SSVP-OH)

IC50 [1, 5]: 27100 nM
IC50 [2, 6]: 16300 nM
Compound: CC[C@H](C)[C@H](NC(=O)[C@H](CC(=O)O)NC(=O)[C@H](CCC(=O)O)NC(=O)[C@H](C)NC(=O)[C@H](CC(C)C)NC(=O)[C@H](CC(N)=O)NC(=O)[C@H](CC(=O)O)NC(=O)[C@H](CCCNC(N)=O)NC(=O)[C@H](CCC(=O)O)NC(=O)[C@@H](NC(=O)[C@H](CCC(=O)O)NC(=O)[C@@H](N)C(C)C)C(C)C)C(=O)N[C@@H](CCSC)C(=O)N[C@@H](CCCNC(=N)N)C(=O)N[C@@H](CC(C)C)C(=O)O [VEVEXDNLAEDIMRL] (H-VEVE[Cit]DNLAEDIMRL-OH)

IC50 [1, 7]: 641 nM
IC50 [2, 8]: 5090 nM
Compound: LPLVDTHSKRTLLIK [Vimentin 431 WT]

IC50 [1, 5]: 512 nM
IC50 [2, 6]: 15800 nM
Compound: CSCC[C@H](NC(=O)[C@H](CCCNC(N)=O)NC(=O)[C@H](CCCNC(=N)N)NC(=O)[C@@H](N)Cc1ccc(O)cc1)C(=O)N[C@@H](Cc1ccccc1)C(=O)NCC(=O)NCC(=O)N1CCC[C@H]1C(=O)NCC(=O)N[C@H](C(=O)N[C@@H](C)C(=O)N[C@@H](CO)C(=O)N[C@@H](CCCNC(=N)N)C(=O)N1CCC[C@H]1C(=O)N[C@@H](CO)C(=O)O)[C@@H](C)O [YRXMFGGPGTASRPS] (H-YR[Cit]MFGGPGTASRPS-OH)

IC50 ([1]; citrullinated peptide as listed (X at Cit position), read-out: DRB1*01:01 binding capacity Cit peptide (IC50 nM)): 0.62 nM
IC50 ([1]; value of the wild-type (non-citrullinated) counterpart of the listed peptide, read-out: DRB1*01:01 binding capacity WT peptide (IC50 nM)): 1.3 nM
IC50 ([2]; citrullinated peptide as listed (X at Cit position), read-out: DRB1*04:01 binding capacity Cit peptide (IC50 nM)): 2310 nM
IC50 ([2]; value of the wild-type (non-citrullinated) counterpart of the listed peptide, read-out: DRB1*04:01 binding capacity WT peptide (IC50 nM)): 794 nM
Compound: CC[C@H](C)[C@H](N)C(=O)N[C@@H](CCCNC(N)=O)C(=O)N[C@@H](C)C(=O)N[C@@H](CCC(=O)O)C(=O)NCC(=O)N[C@@H](CC(N)=O)C(=O)N[C@@H](CO)C(=O)N[C@@H](CCCNC(=N)N)C(=O)N[C@@H](Cc1ccccc1)C(=O)N[C@H](C(=O)N[C@@H](Cc1ccc(O)cc1)C(=O)N[C@H](C(=O)N[C@@H](C)C(=O)N[C@@H](CC(C)C)C(=O)N[C@@H](CCCCN)C(=O)O)[C@@H](C)O)[C@@H](C)O [IXAEGNSRFTYTALK] (H-I[Cit]AEGNSRFTYTALK-OH)
